Assay results reported in patent publication US4918083A, “4,5 Dihydroimidazole compounds which have useful pharmaceutical utility” (Beecham Group p.l.c., priority 1986, dated 1990).
Where a name gives a salt, the structure may show the parent alone. Read-outs that look alike come from different tables or passages of the source.

Columns and labels:
[1] = system: blood glucose; experiment: Reversal of Adrenaline-Exacerbated Glucose Intolerance in Mice; format: in vivo, CFLP female mice; details: Mus musculus, 2 h, oral gavage, glucose 1 g/kg and adrenaline 300 μg/kg s.c. 30 min later, 0-120 min, vs water dosed control, read-out: % Reduction in area under Blood Glucose curve; for inhibition in vivo at 20 µmol/kg: 20 μmol/kg
Description: (A) Reversal of Adrenaline-Exacerbated Glucose Intolerance in Mice
CFLP female mice of about 25 g were fasted for 24 hours prior to receiving water (10 ml/kg) or compounds by oral gavage. Thirty minutes later, glucose (1 g/kg) and adrenaline (300 μg/kg) were injected subcutaneously. Blood samples for glucose analysis were taken serially from the tail of each mouse at 0, 30, 60 90 and 120 minutes after dosing glucose and the results are expressed below as the percentage reduction in the area under the blood glucose curve; the compound treated groups being compared to the water dosed control group. Six mice were used in each treatment group.

[2] = molecular target: T1, α2 -Adrenoceptor (Homo sapiens, UniProt P08913); experiment: α2-Adrenoceptor Binding ([3H] Rauwolscine, human platelet membranes)
T1 construct: Human platelet membranes; from tissue; host or cells: human platelet membranes
T1 sequence (P08913 1-465): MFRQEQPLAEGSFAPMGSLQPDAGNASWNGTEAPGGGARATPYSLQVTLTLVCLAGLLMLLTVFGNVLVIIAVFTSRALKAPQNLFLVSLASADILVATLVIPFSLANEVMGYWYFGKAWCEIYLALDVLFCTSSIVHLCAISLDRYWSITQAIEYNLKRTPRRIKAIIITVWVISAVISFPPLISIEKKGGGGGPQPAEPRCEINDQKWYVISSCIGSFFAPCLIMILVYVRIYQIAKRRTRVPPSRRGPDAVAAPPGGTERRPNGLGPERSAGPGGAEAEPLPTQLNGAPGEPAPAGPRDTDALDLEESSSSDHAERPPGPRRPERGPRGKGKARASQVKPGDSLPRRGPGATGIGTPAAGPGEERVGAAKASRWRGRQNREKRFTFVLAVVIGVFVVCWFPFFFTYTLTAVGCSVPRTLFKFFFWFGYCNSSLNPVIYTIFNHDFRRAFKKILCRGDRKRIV
Description: (B) α2 -Adrenoceptor Binding
Human platelet membranes were incubated with [^3 H] Rauwolscine (0.5-1.0 nM) for 30 minutes at 30° C. with varying concentrates of the drug (0.1-10,000 nM). The binding assay was stopped by filtering and rinsing on GF/B glass fibre filters.

[3] = human platelet membranes, [3H] Rauwolscine 0.5-1.0 nM, 30 minutes at 30° C., read-out: Binding Affinity Ki

Ki [2, 3] | SMILES | inhibition in vivo at 20 µmol/kg [1] | Ki [2] | inhibition in vivo at 10 µmol/kg ([1]; 10 μmol/kg) | inhibition in vivo at 5 µmol/kg ([1]; 5 μmol/kg)
– | CC1c2ccccc2CN1CC1=NCCN1 (stereo not drawn) [Example 1, 2-[2H-(1-Methyl-1,3-dihydroisoindole)methyl]-4,5-dihydroimidazole] | 34% | 1.7 nM | – | –
4.1 nM | CCC1c2ccccc2CN1CC1=NCCN1 (stereo not drawn) [Example 2, 2-[2H-(1-Ethyl-1,3-dihydroisoindole)methyl]-4,5-dihydroimidazole dihydrochloride] | 27% | – | – | –
3.4 nM | CC1c2ccc(Cl)cc2CN1CC1=NCCN1 (stereo not drawn) [Example 3, 2-[2H-(5-Chloro-1-methyl-1,3-dihydroisoindole)methyl]-4,5-dihydroimidazole dihydrochloride] | – | – | 41% | –
6.4 nM | CC1c2cc(Cl)ccc2CN1CC1=NCCN1 (stereo not drawn) [Example 4, 2-[2H-(6-Chloro-1-methyl-1,3-dihydroisoindole)methyl]-4,5-dihydroimidazole] | 27% | – | – | –
0.8 nM | CC1c2ccc(F)cc2CN1CC1=NCCN1 (stereo not drawn) [Example 5, 2[2H-(5-Fluoro-1-methyl-1,3-dihydroisoindole)methyl]-4,5-dihydroimidazole] | – | – | – | 20%
3.6 nM | Clc1ccc(C2c3ccccc3CN2CC2=NCCN2)cc1 (stereo not drawn) [Example 6, 2-[2H-(1-(4-Chlorophenyl)-1,3-dihydroisoindole)methyl]-4,5-dihydroimidazole] | 15% | – | – | –
1.8 nM | Clc1cccc(C2c3ccccc3CN2CC2=NCCN2)c1 (stereo not drawn) [Example 7] | 22% | – | – | –
2.7 nM | Fc1ccc(C2c3ccccc3CN2CC2=NCCN2)cc1 (stereo not drawn) [Example 8, 2-[2H-(1-(4-Fluorophenyl)-1,3-dihydroisoindole)methyl]-4,5-dihydroimidazole] | 21% | – | – | –
6.9 nM | c1ccc(C2c3ccccc3CN2CC2=NCCN2)cc1 (stereo not drawn) [Example 9, 2-[2H-(1-Phenyl-1,3-dihydroisoindole)methyl]-4,5-dihydroimidazole] | 31% | – | – | –
34 nM | CC(C)C1c2ccccc2CN1CC1=NCCN1 (stereo not drawn) [Example 10, 2-(2H-[1-(1-Methylethyl)-1,3-dihydroisoindole]methyl)-4,5-dihydroimidazole dihydrochloride hemihydrate] | – | – | – | –
25 nM | Cc1ccc(C2c3ccccc3CN2CC2=NCCN2)cc1 (stereo not drawn) [Example 11, 2-[2H-(1-(4-Methylphenyl)-1,3-dihydroisoindole)methyl]-4,5-dihydroimidazole] | – | – | – | –
2 nM | COc1ccc(C2c3ccccc3CN2CC2=NCCN2)cc1 (stereo not drawn) [Example 12, 2-[2H-(1-(4-Methoxyphenyl)-1,3-dihydroisoindole)methyl]-4,5-dihydroimidazole] | 34% | – | – | –
40 nM | c1ccc(CC2c3ccccc3CN2CC2=NCCN2)cc1 (stereo not drawn) [Example 13, 2-[2H-(1-Benzyl-1,3-dihydroisoindole)methyl]-4,5-dihydroimidazole] | 16% | – | – | –
